How the values were obtained:
[1] = Assay 1. Stability in Simulated Gastric Fluid (SGF); format: in vitro ADME; settings: 1 μM, 37° C., SGF pH 1.6 with pepsin
Description: Assay 1. Stability of acylated active agents in Simulated Gastric Fluid (SGF). This assay was used to assess the stability of an acylated active agent in a stomach.
Medium was prepared by dissolving 2 g of sodium chloride in 0.6 L of ultrapure water (MilliQ®, Millipore Sigma, Darmstadt, Germany). The pH was adjusted to 1.6 with 1N hydrochloric acid, and the volume was then adjusted to 1 L with purified water.
60 mg FaSSIF powder (Biorelevant™, London, UK) were dissolved in 500 mL buffer (above). Pepsin was added (0.1 mg/mL) (Millipore Sigma, Darmstadt, Germany), and the solution was stirred. The resulting SGF media were used fresh for each experiment.
Test compounds were dissolved in DMSO stock to 1 mM. An aliquot of the DMSO stock solution was removed and diluted in the SGF Media in 15 mL falcon tubes to generate a compound concentration of 1 μM. A 1 mL aliquot was immediately removed and diluted once with 1 volume of acetonitrile for T0 timepoint. The mixture was sealed and mixed at 37° C. in an incubator. Aliquots (1 mL) were removed at regular intervals and immediately quenched by the addition of 1 volume of acetonitrile. The resulting samples were analyzed by LC/MS to determine degradation rates in SGF.

[2] = Assay 2. Stability in Simulated Intestinal Fluid (SIF); format: in vitro ADME; settings: 1 μM, 37° C., SIF pH 6.7 with pancreatin
Description: Assay 2. Stability of acylated active agents in Simulated Intestinal Fluid (SIF). This assay was used to assess the stability of an acylated active agent in a small intestine.
Phosphate buffer was prepared by dissolving 0.42 g of sodium hydroxide pellets and 3.95 g of monobasic sodium phosphate monohydrate and 6.19 g of sodium chloride in ultrapure water (MilliQ®, Millipore Sigma, Darmstadt, Germany). The pH was adjusted to 6.7 using aq. HCl and aq. NaOH, as necessary, and the solution was diluted with ultrapure water to produce 1 L of the pH 6.7 buffer.
112 mg FaSSIF powder (Biorelevant™, London, UK) was dissolved in 50 mL of the pH 6.7 buffer. 2 to 3 mL of the resulting solution were then added to 500 mg pancreatin (Millipore Sigma, Darmstadt, Germany). The resulting mixture was agitated by finger tapping the vessel containing the mixture until milky suspension formed. At this time, the remainder of the 50 mL FaSSiF/pH 6.7 buffer solution was added. The resulting suspension was flipped upside down 10 times to produce SIF, which was used fresh.
Test compounds were dissolved in DMSO stock to 1 mM. An aliquot of the DMSO stock solution was removed and diluted in the SIF media in 15 mL falcon tubes to produce a mixture with a tested compound concentration of 1 μM. A 1 mL aliquot was immediately removed and diluted once with 1 volume of acetonitrile for T0 timepoint. The mixture was sealed and agitated at 37° C. in an incubator. Aliquots (1 mL) were removed at regular intervals and immediately quenched by the addition of 1 volume of acetonitrile. The resulting samples were analyzed by LC/MS to determine degradation rates.

SMILES	Assay 1 (SGF) (% Remaining @ 1 hours) [1]	Assay 2 (SIF) (% @ Remaining 4 hours) [2]
CCC(=O)OCC[C@@H](C)OC(=O)Oc1ccc(/C=C/c2cc(OC(=O)O[C@H](C)CCOC(=O)CC)cc(OC(=O)O[C@H](C)CCOC(=O)CC)c2)cc1 [Compound 76, (3R,3′R)-((((5-((E)-4-(((((R)-4-(propionyloxy)butan-2-yl)oxy)carbonyl)oxy)styryl)-1,3-phenylene)bis(oxy))bis(carbonyl))bis(oxy))bis(butane-3,1-diyl) dipropionate]	B (B: 25-75% of the tested compound remaining)	A (A: <25% of the tested compound remaining)
C=C1CC[C@H](OC(=O)C2(C)OCC[C@@H](C)O2)C/C1=C/C=C1\CCC[C@]2(C)[C@@H]([C@H](C)CCCC(C)C)CC[C@@H]12 (stereo partly drawn) [Compound 70, [(1 S,3Z)-3-[(2E)-2-[(1R,3aS,7aR)-1-[(1R)-1,5-dimethylhexyl]-7a-methyl-2,3,3a,5,6,7-hexahydro-1H-inden-4-ylidene]ethylidene]-4-methylene-cyclohexyl] (4R)-2,4-dimethyl-1,3-dioxane-2-carboxylate]	B (B: 25-75% of the tested compound remaining)	C (C: >75% of the tested compound remaining)
CCCC(=O)O[C@@H]1[C@@H](OC(=O)CCC)[C@@H](Oc2ccc(N)cc2C(=O)O)OC[C@H]1OC(=O)CCC [Compound 33, 5-amino-2-[(2R,3R,4S,5R)-3,4,5-tri(butanoyloxy)tetrahydropyran-2-yl]oxy-benzoic Acid]	C (C: >75% of the tested compound remaining)	C (C: >75% of the tested compound remaining)
CC(=O)OCC[C@@H](C)OC(=O)Oc1ccc(/C=C/c2cc(OC(=O)O[C@H](C)CCOC(C)=O)cc(OC(=O)O[C@H](C)CCOC(C)=O)c2)cc1 [Compound 24, [(3R)-3-[4-[(E)-2-[3,5-bis[[(1R)-3-acetoxy-1-methyl-propoxy]carbonyloxy]phenyl]vinyl]phenoxy]carbonyloxybutyl] acetate]	C (C: >75% of the tested compound remaining)	A (A: <25% of the tested compound remaining)
C[C@@H]1O[C@H](OC(=O)CCc2c[nH]c3ccccc23)[C@@H](OC(=O)CCc2c[nH]c3ccccc23)[C@H](OC(=O)CCc2c[nH]c3ccccc23)[C@@H]1OC(=O)CCc1c[nH]c2ccccc12 [Compound 103, (2R,3S,4R,5R,6S)-3,4,5-tris({[3-(1H-indol-3-yl)propanoyl]oxy})-6-methyloxan-2-yl 3-(1H-indol-3-yl)propanoate]	B (B: 25-75% of the tested compound remaining)	A (A: <25% of the tested compound remaining)
CCCC(=O)O[C@@H]1[C@@H](OC(=O)CCC)[C@@H](OC(=O)CCc2c[nH]c3ccccc23)OC[C@@H]1OC(=O)CCC [Compound 114, (2R,3R,4S,5S)-4,5-bis(butanoyloxy)-2-{[3-(1H-indol-3-yl)propanoyl]oxy}oxan-3-yl Butanoate]	B (B: 25-75% of the tested compound remaining)	A (A: <25% of the tested compound remaining)
O=C(CCc1c[nH]c2ccccc12)O[C@@H]1[C@H](OC(=O)CCc2c[nH]c3ccccc23)COC(O)[C@@H]1OC(=O)CCc1c[nH]c2ccccc12 (stereo partly drawn) [Compound 167, (3R,4R,5R)-6-hydroxy-4,5-bis({[3-(1H-indol-3-yl)propanoyl]oxy})oxan-3-yl 3-(1H-indol-3-yl)propanoate]	C (C: >75% of the tested compound remaining)	A (A: <25% of the tested compound remaining)
CCC(=O)O[C@@H]1[C@@H](OC(=O)CC)[C@H](OC(=O)CC)CO[C@H]1O [Compound 161, (2R,3R,4S,5R)-2-hydroxy-4,5-bis(propanoyloxy)oxan-3-yl Propanoate]	C (C: >75% of the tested compound remaining)	A (A: <25% of the tested compound remaining)
CCC(=O)O[C@@H]1[C@@H](OC(=O)CC)[C@@H](OC(=O)CC)CO[C@H]1O [Compound 159, (3S,4S,5R,6R)-6-hydroxy-4,5-bis(propanoyloxy)oxan-3-yl Propanoate]	C (C: >75% of the tested compound remaining)	B (B: 25-75% of the tested compound remaining)
CC(=O)Oc1ccc([C@@H]2CC(=O)c3c(OC(C)=O)cc(OC(C)=O)cc3O2)cc1 [Compound 21, (S)-2-(4-acetoxyphenyl)-4-oxochromane-5,7-diyl Diacetate]	C (C: >75% of the tested compound remaining)	A (A: <25% of the tested compound remaining)
CCCC(=O)Oc1cc(OC(=O)CCC)c2c(=O)cc(-c3ccc(OC(=O)CCC)c(OC(=O)CCC)c3)oc2c1 [Compound 202, 2-[3,4-bis(butanoyloxy)phenyl]-5-(butanoyloxy)-4-oxo-4H-chromen-7-yl Butanoate]	C (C: >75% of the tested compound remaining)	A (A: <25% of the tested compound remaining)
CC(=O)Oc1ccc(-c2oc3cc(OC(C)=O)cc(OC(C)=O)c3c(=O)c2OC(C)=O)cc1 [Compound 20, [4-(3,5,7-triacetoxy-4-oxo-chromen-2-yl)phenyl] acetate]	C (C: >75% of the tested compound remaining)	A (A: <25% of the tested compound remaining)
CC(=O)OC[C@H]1O[C@@H](Oc2c(C)c(C)c3c(c2C)CC[C@@](C)(CCC[C@H](C)CCC[C@H](C)CCCC(C)C)O3)[C@H](OC(C)=O)[C@@H](OC(C)=O)[C@@H]1OC(C)=O [Compound 63, [(2R,3R,4S,5R,6S)-3,4,5-triacetoxy-6-[(2R)-2,5,7,8-tetramethyl-2-[(4R,8R)-4,8,12-trimethyltridecyl]chroman-6-yl]oxy-tetrahydropyran-2-yl]methyl Acetate]	C (C: >75% of the tested compound remaining)	C (C: >75% of the tested compound remaining)
CCCC(=O)Oc1ccc(N)cc1C(=O)O.Cl [Compound 31, 5-amino-2-butanoyloxy-benzoic Acid Hydrochloride]	C (C: >75% of the tested compound remaining)	C (C: >75% of the tested compound remaining)
CCC(=O)Oc1ccc2c(c1)oc(=O)c1cc(OC(=O)CC)c(OC(=O)CC)cc12 [Compound 242, [6-oxo-8,9-di(propanoyloxy)benzo[c]chromen-3-yl] propanoate]	C (C: >75% of the tested compound remaining)	A (A: <25% of the tested compound remaining)
C=C1CC[C@H](OC(=O)[C@H](OC(=O)CCC)[C@@H](OC(=O)CCC)[C@H](OC(=O)CCC)[C@@H](COC(=O)CCC)OC(=O)CCC)C/C1=C/C=C1\CCC[C@]2(C)[C@@H]([C@H](C)CCCC(C)C)CC[C@@H]12 [Compound 67, [(1 S,3Z)-3-[(2E)-2-[(1R,3aS,7aR)-1-[(1R)-1,5-dimethylhexyl]-7a-methyl-2,3,3a,5,6,7-hexahydro-1H-inden-4-ylidene]ethylidene]-4-methylene-cyclohexyl] (2R,3S,4R,5R)-2,3,4,5,6-penta(butanoyloxy)hexanoate]	B (B: 25-75% of the tested compound remaining)	A (A: <25% of the tested compound remaining)
